Each structure is given as a SMILES string.

The target of the assay is T1, rat GLP-1 receptor (Rattus norvegicus, UniProt P32301).
T1 construct: expressed in transfected cells; host or cells: Dihydrofolate reductase-deficient Chinese hamster ovary cell line DXB-11; membrane preparation
T1 sequence (P32301 22-463): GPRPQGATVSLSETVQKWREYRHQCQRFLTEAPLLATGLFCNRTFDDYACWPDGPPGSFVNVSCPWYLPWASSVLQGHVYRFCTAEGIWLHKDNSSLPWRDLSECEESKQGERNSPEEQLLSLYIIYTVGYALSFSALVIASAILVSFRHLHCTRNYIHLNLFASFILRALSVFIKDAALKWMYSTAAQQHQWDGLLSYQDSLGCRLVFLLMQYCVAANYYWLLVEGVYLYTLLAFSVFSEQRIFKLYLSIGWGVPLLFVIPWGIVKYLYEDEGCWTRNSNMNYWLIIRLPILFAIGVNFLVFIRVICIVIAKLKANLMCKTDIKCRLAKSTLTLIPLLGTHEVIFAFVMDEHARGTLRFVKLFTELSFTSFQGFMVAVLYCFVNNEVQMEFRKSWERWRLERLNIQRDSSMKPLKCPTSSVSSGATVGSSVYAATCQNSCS
As to the kind of experiment: In vitro GLP-1 agonist cAMP assay (particle concentration fluorescence immunoassay, membrane preparation). Format: biochemical. The procedure: Cells were grown to confluency in 10% dialyzed fetal bovine serum/high glucose Dulbecco's Modified Eagle Medium with 0.1% proline at 37° C. The cell were then harvested, and membranes were prepared by first washing the cells with phosphate buffered saline (PBS), then twice with cold buffer (25 mM 4-(2-hydroxyethyl)-1 piperazineethanesulfonic acid (HEPES), 2 mM MgCl2, 1 mM ethylenedinitrilo-tetraacetic acid (EDTA), 20 μg/ml Leupeptin, 1 mM phenylmethyl sulfonyl fluoride (PMSF), 2 μg/ml Aprotinin, 50 μg/ml Trypsin Inhibitor, pH 8.0). The washed cells were resuspended in cold buffer, lysed in a glass Teflon homogenizer and then centrifuged at 35,300 g for 30 minutes at 4° C. The supernatant was removed and the pellet resuspended in cold buffer and homogenized. Two hundred μl aliquots (3.2 mg/ml) were stored at -80° C.
Briefly, 10 μl of membrane prep (80 μg/ml) was preincubated with 10 μl of test compound or reference compound in buffer (25 mM HEPES, 0.2% (w/v) bovine serum albumin (BSA), pH 7.6) at 32° C. for 10 minutes. Five μl of reaction buffer (25 mM HEPES, 0.2% (w/v) BSA, 13 mM (CH3 C00)2 Mg.4H2 O, 4 mM adenosine-5'-triphosphate (ATP), 40 nM guanosine 5'-O-3'thiotriphosphate (GTP-∂-s), 25 mM creatine phosphate, creatine kinase 250 U/ml, 1 mM 3-Isobutyl-1-methyl xanthine (IBMX), pH 7.6) was added and incubated for an additional 30 minutes. Incubations were stopped by adding 25 μl 10 mM EDTA and fluorescent tracer (cAMP-β phycoerythrin conjugate).
This assay, a particle concentration fluorescence immunoassay, was based on the competition between unlabelled cAMP and a fixed amount of fluorescent labelled cAMP for a limited number of binding sites on a cAMP specific antibody. By keeping the quantity of fluorescent ligand and antibody fixed, the amount of fluorescent ligand bound by the antibody was inversely proportional to the concentration of unlabelled cAMP. The antibody-bound cAMP was then captured by anti-rabbit IgG coated assay particles. Separation of the bound antibody fraction was achieved by filtration on Fluoricon®-Ca Assay Plates. After measuring the fluorescence in the pellet, the amount of bound fluorescent cAMP was calculated. The rate of cAMP production (pmol/min/mg) was then determined by interpolation from a standard curve.
For orientation: Cyclic AMP is a second messenger, typically raised through Gs and lowered through Gi signalling.

As for `CC[C@H](C)[C@H](NC(=O)[C@H](Cc1ccccc1)NC(=O)[C@H](CCC(=O)O)NC(=O)[C@H](CCCCN)NC(=O)[C@H](C)NC(=O)[C@H](C)NC(=O)[C@H](CCC(N)=O)NC(=O)CNC(=O)[C@H](CCC(=O)O)NC(=O)[C@H](CC(C)C)NC(=O)[C@H](Cc1ccc(O)cc1)NC(=O)[C@H](CO)NC(=O)[C@H](CO)NC(=O)[C@@H](NC(=O)[C@H](CC(=O)O)NC(=O)[C@H](CO)NC(=O)[C@@H](NC(=O)[C@H](Cc1ccccc1)NC(=O)[C@@H](NC(=O)CNC(=O)[C@@H](N)CCC(=O)O)[C@@H](C)O)[C@@H](C)O)C(C)C)C(=O)N[C@@H](C)C(=O)N[C@@H](Cc1c[nH]c2ccccc12)C(=O)N[C@@H](CC(C)C)C(=O)N[C@H](C(=O)N[C@@H](CCCCN)C(=O)NCC(=O)N[C@@H](CCCNC(=N)N)C(N)=O)C(C)C` [GLP-1(9-36)NH2], the cAMP produced came out at 21.165 pmol/min/mg (Dose 0.005 nM); 21.743 pmol/min/mg (Dose 0.01 nM); 20.678 pmol/min/mg (Dose 0.02 nM); 22.602 pmol/min/mg (Dose 0.05 nM); 22.033 pmol/min/mg (Dose 0.1 nM); 21.460 pmol/min/mg (Dose 0.4 nM). The cAMP produced by setting is: (Dose 1 nM) 21.588 pmol/min/mg; (Dose 4 nM) 21.046 pmol/min/mg; (Dose 10 nM) 22.320 pmol/min/mg; (Dose 100 nM) 19.156 pmol/min/mg.
